This passage reports Km and kcat results from patent EP0303028A1, “Method for preparing single chain urokinase” (GRUPPO LEPETIT S.p.A., priority 1987, dated 1989).

Square brackets hold non-standard residues; d marks the D form. Peptide text beside a SMILES is read from it. * marks the point of attachment. pNA = O=[N+]([O-])c1ccc(N*)cc1; pGlu = O=C1CC[C@@H](C(=O)O)N1

Assay in all cases: Kinetics of amidolytic activity on S-2444 (Lineweaver-Burk)
Common to all, as to assay type: biochemical
Common to all, as to details: pH 8.8 and 37°C

Assay [1] concerns the target plasmin-activated A431 scu-PA (from untransformed human A431 cells) (Homo sapiens, UniProt P00749). As for the experimental part: (§1) The fibrinolytic assay is carried out by the fibrin plate method (Astrup T., Mullertz S., The fibrin plate method for estimating fibrinolytic activity, Arch Biochem Biophys 1952, 40:346-351). Urokinase reference standard is used to calibrate each assay. Activity is measured in International Units (I.U.) relative to the International Reference Preparation as the primary standard. sc-uPA (cell produced single chain urokinase) fibrinolytic latent activity is determined after activation as follows: plasmin (10 mg) is coupled with CNBr-activated Sepharose (cross-linked agarose) (2.5 ml) using 0.5 M sodium carbonate buffer as the coupling buffer. A 1:10 suspension of plasmin-agarose (0.9 ml) in 0.15 M sodium chloride, 0.05 M sodium phosphate buffer pH 7.4 is mixed with sc-uPA samples (0.1 ml) and gently rotated for 1 h at 20°C. Plasmin-agarose is removed by centrifugation 2 min at 10000 x g and the supernatant tested by the fibrin plate assay. Protein concentrations were measured according to the method of Lowry (Lowry O., Rosebrough H., Parr A., Randall R., Protein measurement with the Folin phenol reagent, J. Biol. Chem. 1951, 193,265-275). Amidolytic assays are performed by measuring the rate of hydrolysis of the synthetic substrate pyro-Glu-Gly-Arg-pNA, S-2444 (Claeson G., Friberger P., Knos M., Eriksson E., Methods for determination of pre-kallikrein in plasma, glandular kallikrein and urokinase, Haemostasis 1978; 7:76-78). Immunoadsorbent-amidolytic assay (IAA) is carried out as described by Corti A., Nolli ML., Cassani G., Differential detection of single-chain and two-chain urokinase type plasminogen activator by a new immunoadsorbent amidolytic assay (IAA), Throm Haemostas 1986, 56:407-10. The assay combines the selectivity of immunoassays with the specificity of enzyme activity assays exploiting both the antigenic and enzymatic properties of the two proteins. tcu-PA and scu-PA are selectively immunoadsorbed on the wells of a microtiter plate coated with the monoclonal antibody 5B4 and tested for enzymatic activity before and after activation by plasmin treatment.
(§2) To determine the kinetic parameters of the amidolytic activity, plasmin-activated u-PA's (4.5 nM) are incubated at different concentrations (0.03 - 0.3 mM) of pyro-Glu-Gly-Arg-p-nitroanilide (S-2444) in 0.1 M Tris Cl (pH 8.8), 50 mM NaCl and 0.1% bovine serum albumin at 37°C. The initial rate of p-nitroaniline release is determined photometrically at 405 nm. The linear increase of absorbance with time for the various concentrations of S-2444 is reported in a Lineweaver-Burk plot from which Km and Vmax are calculated by extrapolation of the curves obtained using a linear regression program.

Assay [2] addresses plasmin-activated BPV-LB6-scu-PA (recombinant human uPA from BPV vector transfected murine LB6 cells) (Homo sapiens, UniProt P00749). As for the experimental part:
as §1, §2

The target of assay [3] is plasmin-activated RSV-A431-scu-PA (recombinant human uPA from RSV-uPA transfected A431 cells) (Homo sapiens, UniProt P00749). As for the experimental part:
as §1, §2

Assay [4] concerns the target plasmin-activated RSV-CHO-scu-PA (recombinant human uPA from RSV-uPA transfected CHO cells) (Homo sapiens, UniProt P00749). On the procedure: as §1, §2
Assay [5] has as its target plasmin-activated RSV-LB6-scu-PA (3F11-scu-PA; recombinant human uPA from RSV-uPA transfected murine LB6 cells) (Homo sapiens, UniProt P00749). On the procedure: as §1, §2
Assay [6] addresses plasmin-activated urinary scu-PA (human urine tcu-PA, urokinase) (Homo sapiens, UniProt P00749). As for the experimental part: as §1, §2

A word on the Km: it is the concentration of substrate that gives half-maximal velocity. For orientation: kcat means the maximal rate divided by the concentration of active sites. As to `N=C(N)NCCC[C@H](NC(=O)CNC(=O)[C@@H]1CCC(=O)N1)C(=O)Nc1ccc([N+](=O)[O-])cc1` [S-2444, pyro-Glu-Gly-Arg-p-nitroanilide] ([pGlu]-Gly-Arg-pNA), the Km in assay [1] stood at 72 µM; in assay [2] it was 78 µM; in assay [3], 76 µM; in assay [4], 76 µM; in assay [5] it was 69 µM; in assay [6], 80 µM. Also, the kcat in assay [1] is listed as 23 s⁻¹; in assay [2] it was 26 s⁻¹; in assay [3] it was 23 s⁻¹; in assay [4] it was 26 s⁻¹; in assay [5] it was 24 s⁻¹; in assay [6], 25 s⁻¹.
